From patent EP2578210A1, “Rottlerin for the treatment of pulmonary hypertension and related diseases and disorders” (ATB Innovation Ltd., priority 2011, dated 2013)

Legend:
Kv7.1 = target: T1, Kv7.1 (Homo sapiens, UniProt P51787); assay: Two-electrode current recording of human KCNQ (Kv7) channels heterologously expressed in Xenopus laevis oocytes; type: cell-based
T1 construct: expressed in transfected cells; host or cells: Xenopus laevis oocytes
Text: (§1) Rottlerin was applied at different concentrations to the expressed Kv7 channels.

Kv7.1/KCNE1 = target: T2, Kv7.1/KCNE1 (Homo sapiens, UniProt P51787); assay: as above; type: cell-based
T2 construct: expressed in transfected cells; host or cells: Xenopus laevis oocytes
T2 sequence (P51787 whole entry): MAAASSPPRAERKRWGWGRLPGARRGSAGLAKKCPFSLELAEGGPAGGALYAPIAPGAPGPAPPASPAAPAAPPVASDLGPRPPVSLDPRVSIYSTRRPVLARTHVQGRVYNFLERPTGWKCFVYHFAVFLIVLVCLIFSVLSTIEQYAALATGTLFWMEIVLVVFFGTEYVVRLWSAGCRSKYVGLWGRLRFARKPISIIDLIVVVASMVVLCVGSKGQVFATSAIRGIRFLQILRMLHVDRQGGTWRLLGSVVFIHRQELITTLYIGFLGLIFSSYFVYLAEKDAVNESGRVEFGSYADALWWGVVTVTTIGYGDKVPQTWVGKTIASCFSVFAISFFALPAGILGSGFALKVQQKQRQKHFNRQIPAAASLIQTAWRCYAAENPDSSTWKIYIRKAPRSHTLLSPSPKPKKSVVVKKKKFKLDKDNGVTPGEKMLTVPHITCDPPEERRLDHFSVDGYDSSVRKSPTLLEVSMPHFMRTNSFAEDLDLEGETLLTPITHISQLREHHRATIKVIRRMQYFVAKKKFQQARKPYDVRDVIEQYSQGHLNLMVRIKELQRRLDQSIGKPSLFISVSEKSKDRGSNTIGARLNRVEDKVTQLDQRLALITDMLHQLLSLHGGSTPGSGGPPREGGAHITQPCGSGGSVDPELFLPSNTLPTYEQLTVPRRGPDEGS
Text: as §1

Kv7.2 = target: T3, Kv7.2 (Homo sapiens, UniProt O43526); assay: as above; type: cell-based; settings: different concentrations
T3 construct: expressed in transfected cells; host or cells: Xenopus laevis oocytes
T3 sequence (O43526 whole entry): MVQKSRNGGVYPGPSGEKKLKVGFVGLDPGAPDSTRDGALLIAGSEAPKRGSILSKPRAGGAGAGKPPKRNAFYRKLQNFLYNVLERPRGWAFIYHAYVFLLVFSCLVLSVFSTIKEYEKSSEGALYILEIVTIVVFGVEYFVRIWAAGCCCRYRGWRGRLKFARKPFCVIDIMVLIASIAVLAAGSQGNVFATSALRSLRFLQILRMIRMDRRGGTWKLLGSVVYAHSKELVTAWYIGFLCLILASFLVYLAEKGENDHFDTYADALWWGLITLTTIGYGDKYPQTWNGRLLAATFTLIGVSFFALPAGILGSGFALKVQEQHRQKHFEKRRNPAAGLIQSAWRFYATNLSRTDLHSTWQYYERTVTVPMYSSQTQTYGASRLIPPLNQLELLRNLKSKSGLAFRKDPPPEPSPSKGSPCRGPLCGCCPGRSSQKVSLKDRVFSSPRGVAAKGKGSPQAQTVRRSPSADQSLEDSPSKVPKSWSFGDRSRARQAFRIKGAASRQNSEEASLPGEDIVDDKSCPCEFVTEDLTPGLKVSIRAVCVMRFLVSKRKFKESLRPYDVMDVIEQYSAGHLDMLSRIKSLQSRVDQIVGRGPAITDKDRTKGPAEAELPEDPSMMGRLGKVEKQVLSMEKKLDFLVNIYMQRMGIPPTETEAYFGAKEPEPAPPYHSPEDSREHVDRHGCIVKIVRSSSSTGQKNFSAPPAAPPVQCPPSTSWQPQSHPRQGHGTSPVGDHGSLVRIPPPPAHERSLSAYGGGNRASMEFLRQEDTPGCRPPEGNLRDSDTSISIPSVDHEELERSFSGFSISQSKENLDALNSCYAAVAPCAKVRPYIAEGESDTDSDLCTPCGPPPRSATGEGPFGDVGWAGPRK
Text: as §1

Kv7.3 = target: T4, Kv7.3 (Homo sapiens, UniProt O43525); assay: as above; type: cell-based; settings: different concentrations
T4 construct: expressed in transfected cells; host or cells: Xenopus laevis oocytes
T4 sequence (O43525 whole entry): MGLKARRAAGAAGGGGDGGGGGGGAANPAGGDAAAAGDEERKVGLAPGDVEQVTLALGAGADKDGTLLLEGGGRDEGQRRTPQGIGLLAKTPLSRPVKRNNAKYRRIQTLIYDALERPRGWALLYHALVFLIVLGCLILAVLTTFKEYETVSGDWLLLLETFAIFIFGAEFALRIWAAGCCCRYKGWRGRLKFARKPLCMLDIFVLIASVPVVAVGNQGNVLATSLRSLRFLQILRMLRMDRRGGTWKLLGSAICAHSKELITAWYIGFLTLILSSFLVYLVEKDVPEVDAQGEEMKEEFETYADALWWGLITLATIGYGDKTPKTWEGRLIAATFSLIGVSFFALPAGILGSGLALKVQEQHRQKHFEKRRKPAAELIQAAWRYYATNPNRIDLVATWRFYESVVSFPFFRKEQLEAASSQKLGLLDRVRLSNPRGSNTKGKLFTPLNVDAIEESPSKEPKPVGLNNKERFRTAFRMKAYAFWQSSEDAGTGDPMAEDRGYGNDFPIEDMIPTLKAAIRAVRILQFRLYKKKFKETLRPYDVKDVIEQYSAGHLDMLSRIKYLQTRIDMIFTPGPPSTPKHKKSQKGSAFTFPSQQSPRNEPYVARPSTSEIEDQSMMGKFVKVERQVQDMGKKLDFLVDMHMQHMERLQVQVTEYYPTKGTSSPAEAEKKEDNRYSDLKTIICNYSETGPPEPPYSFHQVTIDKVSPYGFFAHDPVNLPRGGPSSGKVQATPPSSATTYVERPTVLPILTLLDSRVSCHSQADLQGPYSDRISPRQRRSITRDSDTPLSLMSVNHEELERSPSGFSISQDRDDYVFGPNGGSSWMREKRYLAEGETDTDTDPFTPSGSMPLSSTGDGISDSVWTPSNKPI
Text: as §1

Kv7.4 = target: T5, Kv7.4 (Homo sapiens, UniProt P56696); assay: as above; type: cell-based
T5 construct: expressed in transfected cells; host or cells: Xenopus laevis oocytes
T5 sequence (P56696 whole entry): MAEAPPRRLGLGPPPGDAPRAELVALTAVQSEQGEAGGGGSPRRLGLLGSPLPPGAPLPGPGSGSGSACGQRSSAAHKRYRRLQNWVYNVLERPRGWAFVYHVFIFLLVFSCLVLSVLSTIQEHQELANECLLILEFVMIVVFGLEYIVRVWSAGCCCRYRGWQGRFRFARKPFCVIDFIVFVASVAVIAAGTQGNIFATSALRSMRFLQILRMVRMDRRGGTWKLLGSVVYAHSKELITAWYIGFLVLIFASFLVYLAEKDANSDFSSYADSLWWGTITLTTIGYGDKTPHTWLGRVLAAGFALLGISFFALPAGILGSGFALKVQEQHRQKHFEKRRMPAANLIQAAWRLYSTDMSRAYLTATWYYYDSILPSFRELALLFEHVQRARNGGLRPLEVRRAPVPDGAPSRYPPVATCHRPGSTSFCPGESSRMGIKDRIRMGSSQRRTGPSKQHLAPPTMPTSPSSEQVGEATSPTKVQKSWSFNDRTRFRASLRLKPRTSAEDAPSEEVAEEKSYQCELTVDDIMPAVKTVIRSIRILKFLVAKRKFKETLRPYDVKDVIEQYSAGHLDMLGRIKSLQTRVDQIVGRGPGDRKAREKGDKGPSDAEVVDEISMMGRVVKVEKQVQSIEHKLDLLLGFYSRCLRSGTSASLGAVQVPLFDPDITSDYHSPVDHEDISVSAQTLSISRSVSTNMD
Text: as §1

Kv7.5 = target: T6, Kv7.5 (Homo sapiens, UniProt Q9NR82); assay: as above; type: cell-based; settings: different concentrations
T6 construct: expressed in transfected cells; host or cells: Xenopus laevis oocytes
T6 sequence (Q9NR82 whole entry): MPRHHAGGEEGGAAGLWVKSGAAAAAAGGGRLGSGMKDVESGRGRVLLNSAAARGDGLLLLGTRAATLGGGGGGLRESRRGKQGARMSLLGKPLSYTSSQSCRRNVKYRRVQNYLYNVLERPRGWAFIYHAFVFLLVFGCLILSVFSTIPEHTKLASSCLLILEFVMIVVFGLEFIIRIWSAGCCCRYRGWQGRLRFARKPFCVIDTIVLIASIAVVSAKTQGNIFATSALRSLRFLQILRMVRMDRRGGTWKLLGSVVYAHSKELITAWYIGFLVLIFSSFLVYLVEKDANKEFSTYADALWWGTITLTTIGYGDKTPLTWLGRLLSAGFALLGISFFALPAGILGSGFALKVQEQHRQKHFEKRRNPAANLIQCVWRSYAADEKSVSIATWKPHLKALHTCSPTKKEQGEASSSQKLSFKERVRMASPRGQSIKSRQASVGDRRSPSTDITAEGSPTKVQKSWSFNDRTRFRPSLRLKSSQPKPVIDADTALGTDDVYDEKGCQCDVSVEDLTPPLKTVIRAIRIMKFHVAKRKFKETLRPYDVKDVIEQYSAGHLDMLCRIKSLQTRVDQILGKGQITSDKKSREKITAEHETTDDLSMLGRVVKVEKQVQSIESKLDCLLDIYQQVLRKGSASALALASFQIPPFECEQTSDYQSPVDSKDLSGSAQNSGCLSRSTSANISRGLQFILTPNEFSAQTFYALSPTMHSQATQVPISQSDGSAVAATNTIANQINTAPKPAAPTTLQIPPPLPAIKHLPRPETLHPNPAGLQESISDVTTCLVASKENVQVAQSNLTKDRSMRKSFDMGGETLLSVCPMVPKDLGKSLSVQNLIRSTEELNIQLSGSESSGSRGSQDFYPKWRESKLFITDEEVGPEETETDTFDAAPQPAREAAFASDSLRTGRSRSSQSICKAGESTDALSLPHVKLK
Text: as §1

PKCδ = PKCδ (Homo sapiens, UniProt Q05655); settings: in vitro studies; cited from earlier work
other PKC isozymes = settings: in vitro studies; cited from earlier work

T1 sequence (P51787 whole entry): as the sequence (P51787 whole entry) above

CC(=O)c1c(O)c(C)c(O)c(Cc2c(O)c3c(c(C(=O)/C=C/c4ccccc4)c2O)OC(C)(C)C=C3)c1O [rottlerin, 5,7-dihydroxy-2,2-dimethyl-6-(2,4,6-trihydroxy-3-methyl-5-acetylbenzyl)-8-cinnamoyl-1,2-chromene]
EC50 (Kv7.1): 1.48 µM | effect on currents (Kv7.1; Kv7.1, different concentrations): significant robust activation | EC50 (Kv7.1/KCNE1): 4.9 µM | effect on currents (Kv7.1/KCNE1; Kv7.1/KCNE1, different concentrations): significant robust activation | effect on currents (Kv7.2): no significant effect | effect on currents (Kv7.3): no significant effect | EC50 (Kv7.4): 0.148 µM | effect on currents (Kv7.4; Kv7.4, different concentrations): significant robust activation | potency on Kv7.4 relative to Kv7.1/KCNE1 (Kv7.4; more potent on Kv7.4 than on cardiac and epithelial Kv7.1/KCNE1): about 30 fold | effect on currents (Kv7.5): no significant effect | IC50 (PKCδ): 3 to 6 µM | IC50 (other PKC isozymes): 30 to 100 µM
